# Measurements: paper PMC9334755 (Cancer Biology & Medicine, 2021)
# Read-outs that look alike come from different tables or passages of the source.
# Assays:
# [1] = dog
# [2] = target: FLT3 (Homo sapiens, UniProt P36888); test: Protein kinase panel at 1 µM, FLT3; assay type: biochemical
# [3] = target: BMX (Homo sapiens, UniProt P51813); test: HTRF kinase assay, BMX
# Method: Homogeneous time-resolved fluorescence (HTRF) assays were performed with a HTRF® KinEASE™-TK kit (Trevigen).
# [4] = mouse
# [5] = target: ABL1 (Homo sapiens, UniProt P00519); test: Protein kinase panel at 1 µM, ABL1; assay type: biochemical
# [6] = target: FGFR3 (Homo sapiens, UniProt P22607); test: Protein kinase panel at 1 µM, FGFR3; assay type: biochemical
# [7] = system: human peripheral B cells; test: CD69 up-regulation in B cells after anti-IgM stimulation; assay type: cell-based
# Method: CD19^+ B (>80% purity) and CD3^+ T (>90% purity) cells were purified with human B cell enrichment cocktail and human T cell enrichment cocktail (Stem Cell Technology), respectively. Cells were seeded on 12-well plates and incubated with different concentrations of BTK inhibitors for 1 h. B cells were stimulated with 50 µg/mL anti-human IgM F(ab′)2, and T cells were stimulated with 50 µg/mL anti-CD3/CD28 beads overnight. In the washout groups, the cell medium containing the indicated inhibitors was replaced with fresh medium before stimulation. Then cells were then incubated with anti-human CD69 for 1 h and analyzed with a Guava flow cytometer.
# Figure 4 SY-1530 blocks B-cell receptor signaling and induces apoptosis. (A–D) Human B and T cells were purified and incubated with different concentrations of BTK inhibitors for 1 h. B cells were stimulated with 50 μg/mL anti-human IgM F(ab′)2, and T cells were stimulated with 50 μg/mL anti-CD3/CD28 beads overnight directly or after washout of BTK inhibitors before stimulation. The percentage of CD69 positive cells was analyzed by flow cytometry. Data are shown as the mean ± SEM (n = 3). Statistical analysis was performed with Student’s t-test (*P < 0.05, **P < 0.01, ***P < 0.001). (E) Pfeiffer cells and Romas cells were preincubated with different concentrations of compounds for 1 h, washed with PBS, and then stimulated with anti-IgM/anti-IgG (10 μg/mL) for 10 min. Cells were lysed and analyzed by Western blot with the indicated antibodies. (F) Pfeiffer cells were treated with various concentrations of SY-1530 for 24 h. The cells were stained with both PE-Annexin and 7-AAD and analyzed by flow cytometry. Data are shown as the mean ± SEM (n = 3). Statistical analysis was performed with Student’s t-test (*P < 0.05, **P < 0.01). (G) Pfeiffer cells were incubated with BTK inhibitors in the presence of z-VAD-fmk (caspase inhibitor) or DMSO for 24 h. Cells were lysed and analyzed with specific antibodies.
# [8] = target: HCK (Homo sapiens, UniProt P08631); test: Protein kinase panel at 1 µM, HCK; assay type: biochemical
# [9] = target: CYP2C19 (Homo sapiens, UniProt P33261); assay type: in vitro ADME
# Text: (§1) Table S8 Inhibition of CYP isozymes by SY-1530 […]
# (§2) (1 picture or pasted object on this page, not shown here)
# [10] = target: CYP2B6 (Homo sapiens, UniProt P20813); assay type: in vitro ADME
# Text: as §1, §2
# [11] = target: CYP2D6 (Homo sapiens, UniProt P10635); assay type: in vitro ADME
# Text: as §1, §2
# Sequence of BMX (P51813 whole entry): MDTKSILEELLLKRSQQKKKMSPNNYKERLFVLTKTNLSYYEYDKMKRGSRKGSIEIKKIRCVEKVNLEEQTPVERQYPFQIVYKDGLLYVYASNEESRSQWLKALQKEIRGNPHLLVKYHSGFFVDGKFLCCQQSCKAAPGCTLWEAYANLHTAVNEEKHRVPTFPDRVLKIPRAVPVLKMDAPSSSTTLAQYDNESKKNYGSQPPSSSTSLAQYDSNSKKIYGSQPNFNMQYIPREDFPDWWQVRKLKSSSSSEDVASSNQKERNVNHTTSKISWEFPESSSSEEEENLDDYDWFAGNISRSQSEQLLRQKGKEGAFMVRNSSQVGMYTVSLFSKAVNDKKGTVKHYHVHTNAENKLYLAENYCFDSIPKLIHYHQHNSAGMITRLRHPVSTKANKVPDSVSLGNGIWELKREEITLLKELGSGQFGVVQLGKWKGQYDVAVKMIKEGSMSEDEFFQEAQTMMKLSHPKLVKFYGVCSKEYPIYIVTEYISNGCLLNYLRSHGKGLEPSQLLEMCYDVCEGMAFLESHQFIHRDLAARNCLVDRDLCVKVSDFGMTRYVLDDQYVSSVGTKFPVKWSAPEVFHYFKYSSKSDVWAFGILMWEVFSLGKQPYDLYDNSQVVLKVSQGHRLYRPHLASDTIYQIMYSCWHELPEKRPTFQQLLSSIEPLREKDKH
# Sequence of FGFR3 (P22607 23-806): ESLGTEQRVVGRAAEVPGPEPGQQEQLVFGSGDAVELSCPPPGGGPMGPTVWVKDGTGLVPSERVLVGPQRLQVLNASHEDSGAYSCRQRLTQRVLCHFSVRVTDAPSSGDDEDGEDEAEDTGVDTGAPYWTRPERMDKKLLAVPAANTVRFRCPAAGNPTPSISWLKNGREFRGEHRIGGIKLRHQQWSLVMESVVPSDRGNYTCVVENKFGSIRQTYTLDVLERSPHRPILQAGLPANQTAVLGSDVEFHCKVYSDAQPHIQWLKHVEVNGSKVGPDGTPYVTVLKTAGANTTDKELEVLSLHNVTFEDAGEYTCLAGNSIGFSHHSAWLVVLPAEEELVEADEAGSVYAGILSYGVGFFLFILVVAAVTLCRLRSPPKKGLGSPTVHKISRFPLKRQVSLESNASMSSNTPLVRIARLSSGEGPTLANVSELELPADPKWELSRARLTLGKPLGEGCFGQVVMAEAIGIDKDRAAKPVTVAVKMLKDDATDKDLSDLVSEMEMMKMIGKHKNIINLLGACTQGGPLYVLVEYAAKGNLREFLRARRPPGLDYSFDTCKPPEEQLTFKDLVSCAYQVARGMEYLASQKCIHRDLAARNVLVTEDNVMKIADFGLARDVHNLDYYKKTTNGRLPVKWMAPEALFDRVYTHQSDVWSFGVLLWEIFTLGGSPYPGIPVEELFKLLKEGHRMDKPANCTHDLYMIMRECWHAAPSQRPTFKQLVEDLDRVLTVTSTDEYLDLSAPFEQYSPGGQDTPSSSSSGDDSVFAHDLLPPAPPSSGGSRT
# Sequence of FLT3 (P36888 27-993): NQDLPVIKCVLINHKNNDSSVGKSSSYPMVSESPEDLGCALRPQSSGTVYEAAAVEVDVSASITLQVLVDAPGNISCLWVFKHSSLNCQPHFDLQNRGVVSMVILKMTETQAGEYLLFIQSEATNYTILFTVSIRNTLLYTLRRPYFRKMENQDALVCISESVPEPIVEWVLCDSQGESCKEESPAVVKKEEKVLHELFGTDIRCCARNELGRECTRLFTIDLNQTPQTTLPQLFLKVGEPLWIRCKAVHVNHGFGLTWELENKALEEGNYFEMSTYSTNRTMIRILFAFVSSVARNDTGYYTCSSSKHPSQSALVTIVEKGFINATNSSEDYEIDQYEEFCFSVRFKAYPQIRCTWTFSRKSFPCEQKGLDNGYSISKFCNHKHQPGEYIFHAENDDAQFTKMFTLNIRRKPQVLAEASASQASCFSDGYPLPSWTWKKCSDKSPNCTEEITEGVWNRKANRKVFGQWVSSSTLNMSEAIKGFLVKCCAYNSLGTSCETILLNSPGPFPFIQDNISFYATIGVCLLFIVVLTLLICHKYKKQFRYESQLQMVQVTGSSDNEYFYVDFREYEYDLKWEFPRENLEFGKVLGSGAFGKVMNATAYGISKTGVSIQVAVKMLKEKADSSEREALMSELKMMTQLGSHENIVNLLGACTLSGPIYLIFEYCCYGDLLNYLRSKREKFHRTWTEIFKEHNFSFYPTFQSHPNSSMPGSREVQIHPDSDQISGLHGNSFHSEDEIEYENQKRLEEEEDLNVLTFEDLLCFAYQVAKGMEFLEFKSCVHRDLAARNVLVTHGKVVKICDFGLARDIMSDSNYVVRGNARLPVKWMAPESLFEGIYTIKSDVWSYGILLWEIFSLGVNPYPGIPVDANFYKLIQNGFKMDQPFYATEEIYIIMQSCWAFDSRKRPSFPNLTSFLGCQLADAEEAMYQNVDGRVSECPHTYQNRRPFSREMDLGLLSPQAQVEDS
# Sequence of ABL1 (P00519 whole entry): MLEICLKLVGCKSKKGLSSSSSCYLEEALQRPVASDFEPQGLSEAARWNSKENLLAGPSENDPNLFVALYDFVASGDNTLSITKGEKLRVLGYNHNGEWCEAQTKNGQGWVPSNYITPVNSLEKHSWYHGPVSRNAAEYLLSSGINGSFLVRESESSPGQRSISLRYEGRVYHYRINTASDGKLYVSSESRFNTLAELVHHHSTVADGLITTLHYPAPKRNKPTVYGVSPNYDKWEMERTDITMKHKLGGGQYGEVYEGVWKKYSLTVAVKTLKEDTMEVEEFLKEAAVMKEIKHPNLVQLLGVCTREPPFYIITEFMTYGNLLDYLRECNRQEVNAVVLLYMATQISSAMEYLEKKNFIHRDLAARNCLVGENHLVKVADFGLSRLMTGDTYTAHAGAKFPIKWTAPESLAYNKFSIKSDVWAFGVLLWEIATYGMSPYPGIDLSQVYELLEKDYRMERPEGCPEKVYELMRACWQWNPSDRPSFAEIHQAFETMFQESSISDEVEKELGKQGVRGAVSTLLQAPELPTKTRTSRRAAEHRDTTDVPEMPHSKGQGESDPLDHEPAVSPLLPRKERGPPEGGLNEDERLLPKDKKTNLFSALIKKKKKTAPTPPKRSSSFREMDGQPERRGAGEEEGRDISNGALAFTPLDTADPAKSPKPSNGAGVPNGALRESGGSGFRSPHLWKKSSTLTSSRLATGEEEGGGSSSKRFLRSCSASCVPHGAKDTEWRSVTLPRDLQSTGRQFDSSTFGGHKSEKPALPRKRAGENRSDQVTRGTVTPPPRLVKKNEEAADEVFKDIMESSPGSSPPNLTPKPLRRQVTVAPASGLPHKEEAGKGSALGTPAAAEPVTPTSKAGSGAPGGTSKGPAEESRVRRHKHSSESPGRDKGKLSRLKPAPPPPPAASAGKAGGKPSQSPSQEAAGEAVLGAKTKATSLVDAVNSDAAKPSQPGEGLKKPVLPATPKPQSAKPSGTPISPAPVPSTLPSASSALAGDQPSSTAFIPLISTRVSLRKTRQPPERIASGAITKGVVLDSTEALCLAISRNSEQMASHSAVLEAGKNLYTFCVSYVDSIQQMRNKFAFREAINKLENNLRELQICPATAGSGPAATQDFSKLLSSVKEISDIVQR
# Sequence of CYP2D6 (P10635 whole entry): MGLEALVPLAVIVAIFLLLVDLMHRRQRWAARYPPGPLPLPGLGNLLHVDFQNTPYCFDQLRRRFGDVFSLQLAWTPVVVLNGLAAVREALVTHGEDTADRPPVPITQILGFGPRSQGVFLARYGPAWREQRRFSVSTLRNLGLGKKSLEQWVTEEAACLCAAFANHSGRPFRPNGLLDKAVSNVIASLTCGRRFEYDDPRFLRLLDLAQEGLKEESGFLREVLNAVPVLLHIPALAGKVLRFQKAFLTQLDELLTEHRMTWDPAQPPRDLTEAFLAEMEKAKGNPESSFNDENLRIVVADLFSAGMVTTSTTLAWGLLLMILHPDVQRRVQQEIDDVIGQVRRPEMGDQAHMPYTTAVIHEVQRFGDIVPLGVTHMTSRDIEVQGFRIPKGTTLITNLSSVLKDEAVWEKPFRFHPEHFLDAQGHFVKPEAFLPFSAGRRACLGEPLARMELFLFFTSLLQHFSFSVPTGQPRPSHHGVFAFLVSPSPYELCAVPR
# Sequence of HCK (P08631 whole entry): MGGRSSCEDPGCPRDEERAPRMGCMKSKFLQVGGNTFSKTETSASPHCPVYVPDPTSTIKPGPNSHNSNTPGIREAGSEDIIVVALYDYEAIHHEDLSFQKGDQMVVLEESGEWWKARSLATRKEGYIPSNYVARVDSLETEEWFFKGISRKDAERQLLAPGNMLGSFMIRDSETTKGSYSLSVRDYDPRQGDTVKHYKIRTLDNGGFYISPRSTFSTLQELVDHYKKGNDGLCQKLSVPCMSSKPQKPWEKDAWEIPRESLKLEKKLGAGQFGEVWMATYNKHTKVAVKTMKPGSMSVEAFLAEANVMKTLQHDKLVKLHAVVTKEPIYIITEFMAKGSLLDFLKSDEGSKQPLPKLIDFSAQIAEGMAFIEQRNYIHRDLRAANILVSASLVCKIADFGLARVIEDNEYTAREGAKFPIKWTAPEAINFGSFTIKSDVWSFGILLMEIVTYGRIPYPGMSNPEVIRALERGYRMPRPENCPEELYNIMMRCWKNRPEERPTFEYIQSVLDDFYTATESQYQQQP
# Sequence of CYP2C19 (P33261 whole entry): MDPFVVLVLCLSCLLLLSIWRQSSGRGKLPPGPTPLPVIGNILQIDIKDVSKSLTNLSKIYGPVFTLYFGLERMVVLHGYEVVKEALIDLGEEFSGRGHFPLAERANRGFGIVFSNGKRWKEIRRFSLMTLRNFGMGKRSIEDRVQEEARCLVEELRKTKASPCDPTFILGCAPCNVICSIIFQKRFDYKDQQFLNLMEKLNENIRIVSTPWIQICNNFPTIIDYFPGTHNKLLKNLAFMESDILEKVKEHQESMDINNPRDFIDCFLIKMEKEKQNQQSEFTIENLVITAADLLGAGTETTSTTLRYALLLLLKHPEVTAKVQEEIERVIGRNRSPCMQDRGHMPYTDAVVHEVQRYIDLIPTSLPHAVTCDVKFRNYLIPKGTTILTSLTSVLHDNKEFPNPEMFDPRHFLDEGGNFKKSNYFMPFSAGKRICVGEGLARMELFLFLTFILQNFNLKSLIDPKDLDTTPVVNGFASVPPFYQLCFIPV
smiles,measurement,setting,value
COC/C=C/C(=O)N1CC[C@@H](n2nc(-c3ccc(Oc4ccccc4)cc3)c(C(N)=O)c2N)C1 [SY-1530],Plasma protein binding (%),[1],95.5%
same,"Inhibition (%), FLT3",[2],68%
same,"Ratio, BMX",[3]; IC50 SY-1530 over literature IC50 of ibrutinib,9.4
same,IC50,"[3]; read-out: IC50 (nM), BMX, HTRF",7.51 nM
same,Plasma protein binding (%),[4],94.8%
same,"Inhibition (%), ABL1",[5],8%
same,"Inhibition (%), FGFR3",[6],25%
same,Up-regulation of CD69 in B cells after anti-IgM,"[7]; continuous exposure, 10 nM",completely abolished
same,Up-regulation of CD69 in B cells after anti-IgM,[7]; inhibitors washed out before BCR stimulation,blocked
same,"Inhibition (%), HCK",[8],67%
same,IC50,[9],23.8 µM
same,IC50,[10],> 25 µM
same,IC50,[11],> 25 µM
